# Experimental data from patent US20070082956A1, “The use of 1-amino-alkylcyclohexane compounds in the treatment of pain hypersensitivity” (MERZ PHARMA GmbH & Co. KGaA, priority 2003, published 2007).
# System: intradermal capsaicin injection model (secondary hyperalgesia)
# Test: Human surrogate model of neuropathic pain (intradermal capsaicin injection), placebo-controlled double-blind crossover study
# Assay type: in vivo
# Experimental: This surrogate model of neuropathic pain is thus a valid method for early clinical testing of substances for the treatment of neuropathic pain. The efficacy of the neramexane, a moderate affinity, uncompetitive NMDA receptor antagonist, was tested in a placebo-controlled double-blind crossover study in the intradermal capsaicin injection model. Capsaicin (40 μg) was injected intradermally in the skin of the ventral forearm 3 hours after administration of a single oral dose of neramexane hydrochloride (40 mg) or placebo. Changes of pain sensitivity adjacent to the capsaicin injection and in a remote control area were tested in parallel by quantitative sensory testing prior to oral neramexane or placebo, 2½ hours after neramexane or placebo (i.e., prior to capsaicin injection) and 1½ hours after capsaicin injection. The capsaicin injection elicited a strong, over 5-10 min rapidly declining burning pain resulting in enhanced pain sensitivity adjacent to the injection including hyperalgesia to pin prick and pain to light touch (“allodynia”).
smiles,measurement,setting,value
"CC1(C)CC(C)(C)CC(C)(N)C1 [neramexane, 1-amino-1,3,3,5,5-pentamethylcyclohexane]",size of the capsaicin-induced axon reflex erythema,single oral dose 40 mg,remained unaltered
same,summation of pain to repetitive pin prick stimulation (trains of 10 stimuli at 1 Hz),single oral dose 40 mg,never changed
same,reduction of capsaicin-induced burning pain compared to placebo,"single oral dose 40 mg, 2nd-5th min after capsaicin injection, n.s.",33%
same,reduction of pain to stroking light touch stimuli (allodynia),"single oral dose 40 mg, across all test times, p=0.07",22%
same,reduction of pain of noxious pin pricks compared to placebo (analgesia),"single oral dose 40 mg, control area at any time and test area before capsaicin injection, p<0.001",27-31%
same,reduction of pain to stroking light touch stimuli (allodynia),"single oral dose 40 mg, first 30 min after capsaicin injection, p<0.05",25%
same,"antihyperalgesia alone, calculated from the ratio of test and control area","single oral dose 40 mg, not significant",9%
same,reduction of pin prick pain compared to placebo (combined analgesia and antihyperalgesia),"single oral dose 40 mg, test area after capsaicin injection, p<0.001",39%
same,reduction of capsaicin-induced burning pain compared to placebo,"single oral dose neramexane hydrochloride 40 mg, 3 hours before capsaicin 40 μg intradermal, first minute after injection, p<0.01",21%
